Columns and labels:
barnyardgrass = experiment: Test A pre-/postemergence herbicide test; format: in vivo, Echinochloa crus-galli
Method in brief: (§1)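 Greenhouse injury scoring (0–100, complete control = 100) at approximately ten days follows simultaneous pre- and postemergence application. Soil received a directed spray after seeding; seedlings of 2–10 cm at the one- to two-leaf stage were sprayed to runoff.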

morningglory [1] = experiment: Test A pre-/postemergence herbicide test; format: in vivo, Ipomoea spp.
Method in brief: as §1

redroot pigweed = experiment: Test A pre-/postemergence herbicide test; format: in vivo, Amaranthus retroflexus
Method in brief: as §1

bermudagrass = experiment: Test C pre-/postemergence herbicide test; format: in vivo, Cynodon dactylon; conditions: for Bermudagrass plant response rating: Preemergence, 500 g ai/ha
Method in brief: (§2)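 Pre/post spray; non-phytotoxic solvent + surfactant. Post-timing 1–4 leaves, 2–18 cm. Read-out: visual % control vs untreated, day 12–14, greenhouse.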

large crabgrass = experiment: Test C pre-/postemergence herbicide test; format: in vivo, Digitaria sanguinalis; conditions: for Crabgrass, Large plant response rating: 500 g ai/ha
Method in brief: as §2

giant foxtail = experiment: Test C pre-/postemergence herbicide test; format: in vivo, Setaria faberi; conditions: for Foxtail, Giant plant response rating: 500 g ai/ha
Method in brief: as §2

lambsquarters = experiment: Test C pre-/postemergence herbicide test; format: in vivo, Chenopodium album; conditions: for Lambsquarters plant response rating: 500 g ai/ha
Method in brief: as §2

morningglory [2] = experiment: Test C pre-/postemergence herbicide test; format: in vivo, Ipomoea coccinea; design: key to Plant response rating, Morningglory: 0 = no effect, 100 = complete control; conditions: for Morningglory plant response rating: 500 g ai/ha
Method in brief: as §2

common ragweed = experiment: Test C pre-/postemergence herbicide test; format: in vivo, Ambrosia elatior; design: key to Plant response rating, Ragweed: 0 = no effect, 100 = complete control; conditions: for Ragweed plant response rating: 500 g ai/ha
Method in brief: as §2

velvetleaf = experiment: Test C pre-/postemergence herbicide test; format: in vivo, Abutilon theophrasti; conditions: for Velvetleaf plant response rating: 500 g ai/ha
Method in brief: as §2

[3] = Postemergence, 500 g ai/ha, 0 to 100 scale, 0 no effect, 100 complete control
[4] = Postemergence, 2000 g ai/ha, 0 to 100 scale, 0 no effect, 100 complete control
[5] = Preemergence, 500 g ai/ha, visual rating, 0 to 100 scale (0 no effect, 100 complete control)
[6] = Preemergence, 2000 g ai/ha, 0 to 100 scale, 0 no effect, 100 complete control
[7] = 31 g ai/ha, preemergence, scale 0 to 100
[8] = 125 g ai/ha, scale 0-100, preemergence
[9] = Postemergence, 125 g ai/ha, scale 0 to 100, 0 no effect, 100 complete control
[10] = postemergence, 31 g ai/ha, scale 0 to 100
[11] = postemergence, 62 g ai/ha, scale 0 to 100
[12] = postemergence, 125 g ai/ha, scale 0 to 100
[13] = 125 g ai/ha, scale 0 (no effect) to 100 (complete control), visual, 12 to 14 days, preemergence
[14] = 250 g ai/ha, scale 0 to 100 (0 no effect, 100 complete control), visual, 12 to 14 days, preemergence
[15] = scale 0 to 100, 0 no effect, 100 complete control
[16] = Postemergence, 250 g ai/ha, scale 0 to 100, 0 no effect, 100 complete control
[17] = Preemergence, scale 0 to 100, 0 no effect, 100 complete control
[18] = Preemergence, 2000 g ai/ha, visual rating, 0 to 100 scale (0 no effect, 100 complete control)
[19] = preemergence, 500 g ai/ha, visual injury, 0 to 100 scale (0 no effect, 100 complete control)
[20] = 250 g ai/ha, scale 0-100, preemergence
[21] = 62 g ai/ha, preemergence, scale 0 to 100

C=Cn1nc(C(C)(C)C)cc1C(=O)Nc1cccc(C(=O)NCC)c1 [Compound 33]
85: Plant response rating, Pigweed (redroot pigweed; [3]) | Plant response rating, Pigweed (redroot pigweed; [4])
20: Plant response rating, Bermudagrass (bermudagrass; [10]) | Plant response rating, Bermudagrass (bermudagrass; [11]) | Plant response rating (0 = no effect, 100 = complete control), Foxtail, Giant (giant foxtail; 62 g ai/ha, preemergence) | Plant response rating, Morningglory (morningglory [2]; [10]) | Plant response rating, Morningglory (morningglory [2]; [11])
30: Plant response rating, Bermudagrass (bermudagrass; 16 g ai/ha, scale 0 to 100, 0 no effect, 100 complete control, last section of Table C (species set of preemergence test)) | Plant response rating, Bermudagrass (bermudagrass; [9]) | Plant response rating, Foxtail, Giant (giant foxtail; [9]) | Plant response rating, Foxtail, Giant (giant foxtail; [10]) | Plant response rating, Foxtail, Giant (giant foxtail; [11]) | Plant response rating, Morningglory (morningglory [2]; [12])
100: Pigweed plant response rating (redroot pigweed; [5]) | Pigweed plant response rating (redroot pigweed; [6]) | Plant response rating (0 = no effect, 100 = complete control), Crabgrass, Large (large crabgrass; 62 g ai/ha, preemergence) | Plant response rating, Crabgrass, Large (large crabgrass; [8]) | Plant response rating (0 = no effect, 100 = complete control), Lambsquarters (lambsquarters; 62 g ai/ha, preemergence) | Plant response rating, Lambsquarters (lambsquarters; [8])
80: Barnyardgrass plant response rating (barnyardgrass; [6]) | Plant response rating (0 = no effect, 100 = complete control), Bermudagrass (bermudagrass; 62 g ai/ha, preemergence) | Plant response rating, Lambsquarters (lambsquarters; [7])
90: Plant response rating, Barnyardgrass (barnyardgrass; [4]) | Plant response rating, Bermudagrass (bermudagrass; [8]) | Plant response rating, Crabgrass, Large (large crabgrass; [7]) | Plant response rating, Lambsquarters (lambsquarters; [12]) | Plant response rating, Lambsquarters (lambsquarters; [10]) | Plant response rating, Lambsquarters (lambsquarters; [11]) | Plant response rating, Velvetleaf (velvetleaf; [11])
40: Plant response rating, Crabgrass, Large (large crabgrass; [10])
55: Barnyardgrass plant response rating (barnyardgrass; [5])
60: Plant response rating, Foxtail, Giant (giant foxtail; [8]) | Plant response rating, Ragweed (common ragweed; [11]) | Plant response rating, Velvetleaf (velvetleaf; [10])
35: Morningglory plant response rating (morningglory [1]; [5])
75: Plant response rating, Barnyardgrass (barnyardgrass; [3])
50: Plant response rating, Bermudagrass (bermudagrass; [7]) | Plant response rating, Crabgrass, Large (large crabgrass; [9])
70: Morningglory plant response rating (morningglory [1]; [6]) | Plant response rating, Ragweed (common ragweed; [12])
25: Plant response rating, Morningglory (morningglory [1]; [4])
0: Plant response rating, Bermudagrass (bermudagrass; postemergence, 16 g ai/ha, scale 0 to 100) | Plant response rating, Morningglory (morningglory [2]; [7]) | Plant response rating (0 = no effect, 100 = complete control), Morningglory (morningglory [2]; 62 g ai/ha, preemergence) | Plant response rating, Ragweed (common ragweed; [7]) | Plant response rating (0 = no effect, 100 = complete control), Ragweed (common ragweed; 62 g ai/ha, preemergence) | Plant response rating, Velvetleaf (velvetleaf; [7])
10: Plant response rating, Morningglory (morningglory [1]; [3]) | Plant response rating, Foxtail, Giant (giant foxtail; [7])

C=CCNC(=O)c1cccc(NC(=O)c2cc(C(C)(C)C)nn2CC)c1 [Compound 46]
80: Plant response rating, Lambsquarters (lambsquarters; [11]) | Morningglory plant response rating (morningglory [2]; Postemergence, scale 0 to 100) | Ragweed plant response rating (common ragweed; Postemergence, scale 0 to 100) | Plant response rating, Ragweed (common ragweed; [16]) | Velvetleaf plant response rating (velvetleaf; Postemergence, scale 0 to 100) | Plant response rating, Velvetleaf (velvetleaf; [16])
50: Plant response rating, Velvetleaf (velvetleaf; [11])
60: Plant response rating, Foxtail, Giant (giant foxtail; [13]) | Plant response rating, Foxtail, Giant (giant foxtail; [9]) | Plant response rating, Foxtail, Giant (giant foxtail; [16]) | Plant response rating, Morningglory (morningglory [2]; [16]) | Plant response rating, Morningglory (morningglory [2]; [11])
40: Plant response rating, Morningglory (morningglory [1]; [3]) | Morningglory plant response rating (morningglory [1]; [5]) | Plant response rating, Foxtail, Giant (giant foxtail; [11]) | Plant response rating, Ragweed (common ragweed; [13])
10: Plant response rating (0 = no effect, 100 = complete control), Foxtail, Giant (giant foxtail; 62 g ai/ha, preemergence) | Plant response rating (0 = no effect, 100 = complete control), Ragweed (common ragweed; 62 g ai/ha, preemergence)
0: Plant response rating (0 = no effect, 100 = complete control), Morningglory (morningglory [2]; 62 g ai/ha, preemergence) | Plant response rating, Morningglory (morningglory [2]; [13])
100: Plant response rating, Barnyardgrass (barnyardgrass; [3]) | Plant response rating, Barnyardgrass (barnyardgrass; [4]) | Barnyardgrass plant response rating (barnyardgrass; [6]) | Plant response rating, Pigweed (redroot pigweed; [3]) | Plant response rating, Pigweed (redroot pigweed; [4]) | Pigweed plant response rating (redroot pigweed; [5]) | Pigweed plant response rating (redroot pigweed; [6]) | Plant response rating, Bermudagrass (bermudagrass; [13]) | Plant response rating, Bermudagrass (bermudagrass; [14]) | Plant response rating, Bermudagrass (bermudagrass; [9]) | Bermudagrass plant response rating (bermudagrass; [15]) | Plant response rating (0 = no effect, 100 = complete control), Crabgrass, Large (large crabgrass; 62 g ai/ha, preemergence) | Plant response rating, Crabgrass, Large (large crabgrass; [13]) | Plant response rating, Crabgrass, Large (large crabgrass; [14]) | Crabgrass, Large plant response rating (large crabgrass; [17]) | Plant response rating, Foxtail, Giant (giant foxtail; [14]) | Foxtail, Giant plant response rating (giant foxtail; [17]) | Plant response rating (0 = no effect, 100 = complete control), Lambsquarters (lambsquarters; 62 g ai/ha, preemergence) | Plant response rating, Lambsquarters (lambsquarters; [13]) | Plant response rating, Lambsquarters (lambsquarters; [14]) | Lambsquarters plant response rating (lambsquarters; Postemergence, scale 0 to 100) | Plant response rating, Lambsquarters (lambsquarters; [16]) | Lambsquarters plant response rating (lambsquarters; [17]) | Plant response rating, Velvetleaf (velvetleaf; [13]) | Plant response rating, Velvetleaf (velvetleaf; [14]) | Velvetleaf plant response rating (velvetleaf; [17])
65: Plant response rating, Morningglory (morningglory [1]; [4]) | Morningglory plant response rating (morningglory [1]; [6])
70: Foxtail, Giant plant response rating (giant foxtail; Postemergence, scale 0 to 100) | Plant response rating, Ragweed (common ragweed; [11])
90: Barnyardgrass plant response rating (barnyardgrass; [5]) | Plant response rating (0 = no effect, 100 = complete control), Bermudagrass (bermudagrass; 62 g ai/ha, preemergence) | Crabgrass, Large plant response rating (large crabgrass; Postemergence, scale 0 to 100) | Plant response rating, Crabgrass, Large (large crabgrass; [9]) | Plant response rating, Crabgrass, Large (large crabgrass; [16]) | Plant response rating, Morningglory (morningglory [2]; [14]) | Morningglory plant response rating (morningglory [2]; [17]) | Plant response rating, Ragweed (common ragweed; [14]) | Ragweed plant response rating (common ragweed; [17]) | Plant response rating (0 = no effect, 100 = complete control), Velvetleaf (velvetleaf; 62 g ai/ha, preemergence)

CCNC(=O)c1cccc(NC(=O)c2sc(C(C)(C)C)nc2C)c1 [Compound 198]
0: Plant response rating, Foxtail, Giant (giant foxtail; [21])
70: Plant response rating, Morningglory (morningglory [2]; [13])
10: Plant response rating, Foxtail, Giant (giant foxtail; [13]) | Plant response rating, Morningglory (morningglory [2]; [21])
90: Barnyardgrass plant response rating (barnyardgrass; [18])
60: Morningglory plant response rating (morningglory [1]; [3]) | Plant response rating, Bermudagrass (bermudagrass; 62 g ai/ha, preemergence, scale 0 to 100, 0 no effect, 100 complete control) | Plant response rating, Foxtail, Giant (giant foxtail; [20])
55: Barnyardgrass plant response rating (barnyardgrass; [19]) | Pigweed plant response rating (redroot pigweed; [3])
80: Plant response rating, Barnyardgrass (barnyardgrass; [4]) | Plant response rating, Crabgrass, Large (large crabgrass; [21]) | Plant response rating, Ragweed (common ragweed; [13]) | Plant response rating, Velvetleaf (velvetleaf; [13]) | Plant response rating, Velvetleaf (velvetleaf; [20])
45: Barnyardgrass plant response rating (barnyardgrass; [3]) | Morningglory plant response rating (morningglory [1]; [19])
50: Plant response rating, Ragweed (common ragweed; [21])
85: Morningglory plant response rating (morningglory [1]; [18]) | Plant response rating, Bermudagrass (bermudagrass; [13]) | Plant response rating, Crabgrass, Large (large crabgrass; [13]) | Plant response rating, Lambsquarters (lambsquarters; [21]) | Plant response rating, Morningglory (morningglory [2]; [20]) | Morningglory plant response rating (morningglory [2]; [17])
100: Pigweed plant response rating (redroot pigweed; [18]) | Plant response rating, Bermudagrass (bermudagrass; [20]) | Bermudagrass plant response rating (bermudagrass; [15]) | Foxtail, Giant plant response rating (giant foxtail; [17]) | Plant response rating, Lambsquarters (lambsquarters; [13]) | Plant response rating, Lambsquarters (lambsquarters; [20]) | Lambsquarters plant response rating (lambsquarters; [17]) | Ragweed plant response rating (common ragweed; [17]) | Velvetleaf plant response rating (velvetleaf; [17])
95: Pigweed plant response rating (redroot pigweed; [19]) | Plant response rating, Crabgrass, Large (large crabgrass; [20]) | Crabgrass, Large plant response rating (large crabgrass; [17]) | Plant response rating, Ragweed (common ragweed; [20])
75: Plant response rating, Morningglory (morningglory [1]; [4]) | Plant response rating, Pigweed (redroot pigweed; [4])
5: Plant response rating, Velvetleaf (velvetleaf; [21])
